Read-outs that look alike come from different tables or passages of the source.
Legend:
[1] = system: colon cancer 26-L5 cell invasion; assay: recombinant basement membrane invasion experiment (Transwell/Matrigel); type: cell-based; conditions: for IC50 / IC50 (μg/mL): inhibition of colon cancer 26-L5 cell invasion
Procedure: Invasion and metastasis are basic characteristics of malignant tumors. During the tumor metastasis process, the tumor cell invasion into a basement membrane is an important link. A conventional recombinant basement membrane invasion experiment is adopted, a natural product Brartemicin is taken as positive control, and the inhibition action of trehalose derivatives against colon cancer 26-L5 cell invasion activity is determined.
Polycarbonate membrane 8 μm (Nucleopore, Pleasanton, Calif., USA); Transwell cell culture chamber (Costar 3422, Cambridge, Mass., USA); fibronectin (FN; Collaborative Research Inc., Bedford, Mass., USA); Matrigel (Collaborative Research Inc., Bedford, Mass., USA); RPMI1640 culture medium containing 1% of fetal calf serum (FCS) (Collaborative Research Inc., Bedford, Mass., USA); and hematoxylin-eosin (HE) staining kit (Collaborative Research Inc., Bedford, Mass, USA).
20 μg of fibronectin is smeared on the lower layer of a Transwell cell culture chamber, and 5 μg of Matrigel is smeared on the upper layer. Colon cancer 26-L5 cells in an exponential growth phase are suspended in an RPMI1640 culture medium containing 1% of fetal calf serum (FCS), which contains different concentrations of the trehalose derivatives or different concentrations of Brartemicin. […] The filter ester membranes contain the colored colon cancer 26-L5 cells after invasion. The ester membranes are placed on glass slides and are subjected to permeabilization by xylene, neutral resin is used for sealing, and the invasion cells are counted under a 400× microscope. The number of the penetrating cells of each membrane is counted from five different visual fields, namely upper, lower, left, right and middle visual fields, the average value is calculated, and three filter membranes are arranged in parallel in each group.
The natural product Brartemicin is taken as the positive control, the inhibition action of the trehalose derivatives against the colon cancer 26-L5 cell invasion activity is determined, and the activity experiment results are as shown in the following Table 1.

[2] = system: colon cancer 26-L5 cell invasion; conditions: background statement; read-out: anti-colon cancer 26-L5 cell invasion activity IC50; cited from earlier work
normal cells = conditions: background statement; cited from earlier work

Compound | anti-colon cancer 26-L5 cell invasion activity (in words) [1] | IC50 (μg/mL) ([1]; incubation 6-8 hours) | also measured
COc1cccc(C(=O)OC[C@H]2O[C@H](O[C@H]3O[C@H](COC(=O)c4cccc(OC)c4OC)[C@@H](O)[C@H](O)[C@H]3O)[C@H](O)[C@@H](O)[C@@H]2O)c1OC [Compound 3e] | strong anti-colon cancer 26-L5 cell invasion activity | – | activity compared with the natural product Brartemicin [1]: stronger activity than the natural product Brartemicin; IC50 ([1]; incubation 6-8 hours): 0.10 mg/L; IC50 ([1]; same value given in μM, read-out: IC50): 0.15 µM
COc1cc(C(=O)OCC2OC(OC3OC(COC(=O)c4ccc(F)c(OC)c4)C(O)C(O)C3O)C(O)C(O)C2O)ccc1F (stereo not drawn) [Compound 3h] | – | NA (NA: no activity when IC50 is 10 μg/mL) | –
Cc1cc(O)cc(O)c1C(=O)OC[C@H]1O[C@H](O[C@H]2O[C@H](COC(=O)c3c(C)cc(O)cc3O)[C@@H](O)[C@H](O)[C@H]2O)[C@H](O)[C@@H](O)[C@@H]1O [Brartemicin] | – | – | IC50 [2]: 0.39 µM; toxicity against normal cells (normal cells): no toxicity against normal cells; IC50 ([1]; incubation 6-8 hours, read-out: IC50): 0.25 mg/L
O=C(OCC1OC(OC2OC(COC(=O)c3ccc(O)cc3)C(O)C(O)C2O)C(O)C(O)C1O)c1ccc(O)cc1 (stereo not drawn) [Compound 3d] | strong anti-colon cancer 26-L5 cell invasion activity | – | –
COc1ccccc1C(=O)OCC1OC(OC2OC(COC(=O)c3ccccc3OC)C(O)C(O)C2O)C(O)C(O)C1O [Compound 3a, 6,6′-bis(2-methoxybenzoyl)-α,α-D-trehalose] | strong anti-colon cancer 26-L5 cell invasion activity | – | –
COc1cc(C(=O)OC[C@H]2O[C@H](O[C@H]3O[C@H](COC(=O)c4cc(OC)c(OC)c(OC)c4)[C@@H](O)[C@H](O)[C@H]3O)[C@H](O)[C@@H](O)[C@@H]2O)cc(OC)c1OC [Compound 3i] | – | NA (NA: no activity when IC50 is 10 μg/mL) | –
Cc1cccc(N)c1C(=O)OC[C@H]1O[C@H](O[C@H]2O[C@H](COC(=O)c3c(C)cccc3N)[C@@H](O)[C@H](O)[C@H]2O)[C@H](O)[C@@H](O)[C@@H]1O [Compound 3g] | strong anti-colon cancer 26-L5 cell invasion activity | – | –
O=C(OCC1OC(OC2OC(COC(=O)c3c(F)cccc3F)C(O)C(O)C2O)C(O)C(O)C1O)c1c(F)cccc1F (stereo not drawn) [Compound 3f] | strong anti-colon cancer 26-L5 cell invasion activity | – | –
COc1ccc(C(=O)OC[C@H]2O[C@H](O[C@H]3O[C@H](COC(=O)c4ccc(OC)cc4)[C@@H](O)[C@H](O)[C@H]3O)[C@H](O)[C@@H](O)[C@@H]2O)cc1 [Compound 3c, 6,6′-bis(4-methoxybenzoyl)-α,α-D-trehalose] | – | NA (NA: no activity when IC50 is 10 μg/mL) | –
Cc1ccccc1C(=O)OC[C@H]1O[C@H](O[C@H]2O[C@H](COC(=O)c3ccccc3C)[C@@H](O)[C@H](O)[C@H]2O)[C@H](O)[C@@H](O)[C@@H]1O [Compound 3b, 6,6″-bis(2-methylbenzoyl)-α,α-D-trehalose] | – | NA (NA: no activity when IC50 is 10 μg/mL) | –
